The target in series [1] is T1, Human CA I (Homo sapiens, UniProt P00915).
T1 construct: purchased Sigma C-6165
Nature of the series: Inhibition assay for CA (Method A), CA I. It counts as biochemical. To be noted: CO2 hydration, phenol red. The method, then:
(§1) Compounds of Formula I were assessed for their inhibitory activities against human CAs according to methods described in a literature and a prior art. […] Details of the employed assay methods (Method A and Method B) for the inhibition of CAs are provided in the section of “MATERIALS AND METHODS” of this invention. Provided below are some of compounds of Formula I assayed for the inhibition of CAs. [drawing 6] [drawing 7] [drawing 8]
(§2) DMSO and buffer agents were obtained from Sigma. Distilled water was prepared in-house by distilling deionized water.
(§3) Inhibition Assay for CA (Method A): CA inhibitory activities by COX-2 inhibitors of this invention were assessed by a previously reported method. […] Then the interval was measured from the initiation of the reaction to the point of the color change of the solution from purple to yellow. During the entire reaction, the reaction solution was kept bubbled with CO2.

Series [2] has as its target T2, Human CA II (Homo sapiens, UniProt P00918).
T2 construct: purchased Sigma C-4936
The experiment in a line: Inhibition assay for CA (Method A), CA II. It counts as biochemical. To be noted: CO2 hydration, phenol red. The method, then:
as §1, §2, §3

Series [3] addresses T1, Human CA I. The experiment in a line: Inhibition assay for CA (Method B, esterase activity), CA I. It counts as biochemical. To be noted: p-nitrophenylacetate hydrolysis, pH 7.6. The method, then: as §1, §2
(§4) The employed method is briefly described as follows. An aqueous reaction mixture consisting of 2 Wilbur-Anderson units of CA, 4 mM p-nitrophenylacetate, 5% DMSO, 0.1 M Na2SO4, and 50 mM Tris-HCl buffer at pH 7.6 was prepared to contain a designated amount of inhibitor. The esterase activity of CA (the hydrolysis of p-nitrophenylacetate) was followed by the increases in absorbance at 405 nm using an ELISA reader at room temperature. The initial rate (slope of the initial absorbance data) data from the absorbance data were used to calculate % inhibition of CA at a designated concentration of inhibitor according to equation (7). % Inhibition=[1−(Initial Rate with Inhibitor)/(Initial Rate without Inhibitor)]×100 (7)

Series [4] addresses T2, Human CA II. The experiment in a line: Inhibition assay for CA (Method B, esterase activity), CA II. To be noted: p-nitrophenylacetate hydrolysis, pH 7.6. It counts as biochemical. The method, then: as §1, §2, §4
Series [5] in a line: Pharmacokinetic studies in rats. To be noted: rat, plasma. It is filed as in vivo. The protocol: Pharmacokinetic Studies in Rats: An appropriate amount of a compound suspended in 1% aqueous methylcelluose solution was administered to male SD rats by oral gavage. Blood samples were collected from the retro-orbital sinus at designated time points over 0 to 24 hours post dose. Plasma was separated from each withdrawn blood sample by centrifugation and the plasma sample was stored at 4° C. until HPLC analysis for the quantification of the compound. The plasma samples were analyzed by reverse phase HPLC using an appropriate internal standard and a pre-established calibration curve.

The nature of series [6]: Plasma protein binding, filtration method, HPLC. It counts as in vitro ADME. To be noted: male, SD; pooled rat plasma at 1 μg/ml. The protocol:
Plasma Protein Binding of Compound: Plasma protein binding was determined for a compound of Formula I by a filtration method. An aliquot of a compound stock solution in DMSO was added to a designated volume of freshly prepared pooled plasma from male SD rats. The plasma solution was then subjected to filtration using a centrifuge filter (Amicon YM-30) at 4000 g for 30 min. The filtrate was analyzed by HPLC to determine the concentration of the compound.

Series [7] can be described thus: Plasma protein binding, filtration method, 14C-labeled compound. It is filed as in vitro ADME. To be noted: Sprague-Dawley (SD), rat, broad range of concentrations. The method, then: Alternatively, plasma protein binding was determined by a filtration method employing a ^14C-labeled compound of Formula I. Scintillation counting was used for analysis in place of HPLC.

A short description of series [8]: Partitioning between plasma and erythrocytes, 14C-labeled compound. It counts as in vitro ADME. The protocol:
Alternatively, partitioning between plasma and erythrocytes was determined by using a ^14C-labeled compound of Formula I and whole blood withdrawn as heparinized. Scintillation counting was used for analysis in place of HPLC.

Series [9] can be described thus: Repeat dose toxicity study in rats. It is filed as in vivo, rat.
Series [10] is described as follows: Repeat dose toxicity study in monkeys. The protocol:
Toxicokinetic studies were performed with treatment groups in monkeys. Satellite toxicokinetic groups were used for the toxicokinetic studies of treatment groups in rats. Animals at terminal sacrifice were evaluated for histopathological findings in the GI tract and other organs.

Series [11] concerns adjuvant-induced arthritis. To be noted: male Lewis rats, oral, bid; cited from earlier work.
For series [12], the system named is carrageenan-induced thermal hyperalgesia. To be noted: male SD rats, orally administered; cited from earlier work.
The conditions of series [13]: cited from earlier work; for primary target sites of the GI adverse events: repeated oral administrations.
The conditions of series [14]: cited from earlier work.
Another series deals with intraocular pressure. To be noted: oral administration, hypertensive rabbits; cited from earlier work.
The conditions of series [15]: human whole blood, FDA pharmacology review; cited from earlier work.
For series [16] the following is noted: FDA pharmacology review; valdecoxib in human whole blood; cited from earlier work.
Where [17] appears, read: repeated oral administrations for 4 weeks.

Where two headings read alike, the source gives them in different places.

T1 sequence (P00915 whole entry): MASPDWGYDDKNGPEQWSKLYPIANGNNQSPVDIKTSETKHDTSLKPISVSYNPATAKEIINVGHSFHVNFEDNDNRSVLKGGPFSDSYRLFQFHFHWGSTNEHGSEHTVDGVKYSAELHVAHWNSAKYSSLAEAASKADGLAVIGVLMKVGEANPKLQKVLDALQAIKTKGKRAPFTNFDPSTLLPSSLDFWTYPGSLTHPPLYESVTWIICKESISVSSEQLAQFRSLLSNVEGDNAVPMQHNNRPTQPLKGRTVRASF

By IC50 is commonly meant the concentration that gives 50% inhibition. What is called fraction unbound is the share of the substance not bound to proteins or other matrix. Read a low fraction unbound as little free substance. Turning to `CC1(C)OC(c2ccc(S(N)(=O)=O)cc2)=C(c2cccc(F)c2)C1=O` [Example 1, 5-{4-(aminosulfonyl)phenyl}-2,2-dimethyl-4-(3-fluorophenyl)-3(2H)furanone], the IC50 at Human CA I [1] was determined as 3 µM; at Human CA II [2] it was 0.8 µM; against Human CA I [3], 0.29 µM; on Human CA II [4], 0.063 µM. The Cmax was 0.0041 µg/mL in [5] (male, SD, oral, 0.05 mg/kg, 82 ng/ml divided by 20, read-out: Cmax calculated for 0.1 mg/kg/day, bid (0.05 mg/kg)) and 0.082 µg/mL in [5] (oral 1 mg/kg, male SD rats, read-out: plasma Cmax). The unbound share (fraction unbound) at 1 μg/ml in series [6] was below 0.01. The compound further had a free fraction (fraction unbound) in series [7] of around 0.1. In series [8], the “distribution to erythrocytes over plasma” value is “even more preferentially distribute to erythrocytes over plasma”. Besides, in series [9], the “primary target site of the intestinal adverse findings” value is reported as “caecum”. In addition, in series [9] (oral, up to 4 weeks), the “dose limiting adverse effects” value is “Intestinal adverse effects (primarily in the caecum)”. Besides, the “daily systemic exposure without positive histopathological findings in the stomach” value in series [9] (setting [17]) is ~30,000 hr×ng/ml. In addition, the “histopathological findings in the stomach” value is recorded as “no positive histopathological findings in the stomach” in [9] (repeated oral administrations for 4 weeks, daily systemic exposure of ca 30,000 hr×ng/ml) and “one case of focal mucosal degeneration in the stomach” in series [10] (4 weeks, one out of 18 subjects). In addition, in [10] (final day of the treatment), the “daily systemic exposure of the subject with the histopathological finding in the stomach” value was > 20,000 hr×ng/ml. The “histopathological findings in the intestines” value in series [10] (setting [17]) is “not associated with positive histopathological findings in the intestines”. Besides, in series [11], the “ED50 by adjuvant-induced arthritis” value was 0.1 mg/kg/day. The “ED50 in carrageenan-induced thermal hyperalgesia” value in series [12] is reported as 0.25 mg/kg.

`CC1(C)OC(c2ccc(S(N)(=O)=O)cc2)=C(c2cc(F)ccc2F)C1=O` [Example 2, 5-{4-(aminosulfonyl)phenyl}-4-(2,5-difluorophenyl)-2,2-dimethyl-3(2H)furanone]: the values for the concentration for half-maximal inhibition (IC50) against Human CA I [1] and against Human CA II [2] were 3.2 µM and 0.74 µM, respectively.

Take `CC1(C)OC(c2ccc(S(N)(=O)=O)c(F)c2)=C(c2cccc(F)c2)C1=O` [Example 4, 5-{4-(aminosulfonyl)-3-fluorophenyl}-2,2-dimethyl-4-(3-fluorophenyl)-3(2H)furanone]: the IC50 against Human CA I [1] was 1.7 µM; against Human CA II [2], 0.45 µM; at Human CA I [3], 0.21 µM; against Human CA II [4], 0.027 µM.

For `CC1(C)OC(c2ccc(S(N)(=O)=O)c(F)c2)=C(c2cc(F)ccc2F)C1=O` [Example 5, 5-{4-(aminosulfonyl)-3-fluorophenyl}-4-(2,5-difluorophenyl)-2,2-dimethyl-3(2H)furanone], the IC50 against Human CA I [1] was found to be 1.3 µM; on Human CA II [2] it was 0.48 µM; on Human CA I [3] it was 0.24 µM; at Human CA II [4], 0.014 µM.

In the case of `CC1(C)OC(c2ccc(S(N)(=O)=O)c(F)c2)=C(c2ccc(F)c(F)c2)C1=O` [Example 6, 5-{4-(aminosulfonyl)-3-fluorophenyl}-4-(3,4-difluorophenyl)-2,2-dimethyl-3(2H)furanone], the IC50 at Human CA I [1] was 5 µM; against Human CA II [2] it was 0.91 µM.

Consider `CC1(C)OC(c2ccc(S(N)(=O)=O)c(F)c2)=C(c2cc(F)cc(F)c2)C1=O` [Example 7, 5-{4-(aminosulfonyl)-3-fluorophenyl}-4-(3,5-difluorophenyl)-2,2-dimethyl-3(2H)furanone], for which the IC50 on Human CA I [1] was 3.4 µM; against Human CA II [2], 0.63 µM.

`CC1(C)OC(c2ccc(S(N)(=O)=O)cc2F)=C(c2ccc(F)cc2)C1=O` [Example 8, 5-{4-(aminosulfonyl)-2-fluorophenyl}-2,2-dimethyl-4-(4-fluorophenyl)-3(2H)furanone]: the IC50 on Human CA I [1] amounted to 1.9 µM; at Human CA II [2] it was 0.42 µM.

For `CC1(C)OC(c2ccc(S(N)(=O)=O)cc2F)=C(c2cc(F)cc(F)c2)C1=O` [Example 9, 5-{4-(aminosulfonyl)-2-fluorophenyl}-4-(3,5-difluorophenyl)-2,2-dimethyl-3(2H)furanone], the IC50 came to 4.7 µM against Human CA I [1] and 0.63 µM at Human CA II [2].

With `Cc1cc(C2=C(c3cccc(F)c3)C(=O)C(C)(C)O2)ccc1S(N)(=O)=O` [Example 10, 5-{4-(aminosulfonyl)-3-methylphenyl}-2,2-dimethyl-4-(3-fluorophenyl)-3(2H)furanone], the concentration for half-maximal inhibition (IC50) against Human CA I [1] was 9.1 µM; against Human CA II [2], 5.4 µM.

For `Cc1cnc(NC(=O)C2=C(O)c3ccccc3S(=O)(=O)N2C)s1` [Meloxicam], in [13] (rats), the “primary target sites of the GI adverse events” value (“primary target sites” for short) is given as “duodenum”.

Regarding `Cc1ccc(-c2cc(C(F)(F)F)nn2-c2ccc(S(N)(=O)=O)cc2)cc1` [celecoxib], the thromboembolic events entry in series [14] (400 mg/day and 800 mg/day, long term cancer prevention trial (APC)) is on record as “increases in the thromboembolic events”. In addition, in series [13] (rat, in vivo), the gastric toxicity result is recorded as “not associated with gastric toxicity”. Also, in [13] (rats), the “primary target sites” value was “jejunum and ileum”.

`O=C(O)Cc1ccccc1Nc1c(Cl)cccc1Cl` [diclofenac]: the “effect on intraocular pressure” value with intraocular pressure is given as “failed to reduce the intraocular pressure”.

Take `COc1ccc2c(c1)c(CC(=O)O)c(C)n2C(=O)c1ccc(Cl)cc1` [indomethacin, reference compound]: the “ED50 by adjuvant-induced arthritis” value in series [11] is 0.3 mg/kg/day. Moreover, the “ED50 in carrageenan-induced thermal hyperalgesia” value in [12] is listed as around 1.0 mg/kg.

Take `CS(=O)(=O)c1ccc(C2=C(c3ccccc3)C(=O)OC2)cc1` [rofecoxib]: the “distribution ratio erythrocytes over plasma” value in series [15] is listed as “no noticeable preferential distribution”. Also, in series [16], the plasma protein binding was 87%. Moreover, the thromboembolic cardiovascular events entry in series [14] (25 mg/day, long term cancer prevention trial (APPROVe)) was “increased risk of thromboembolic cardiovascular events”. Besides, in [13] (rats, doses where the intestinal toxicity began to come out), the gastric toxicity entry is listed as “not associated with gastric toxicity”. In addition, in series [13] (rats), the “primary target sites” value is “jejunum and ileum”.

For the compound `Cc1onc(-c2ccccc2)c1-c1ccc(S(N)(=O)=O)cc1` [valdecoxib], the plasma protein binding in series [16] is listed as 98%. Further, the “effect on intraocular pressure” value with intraocular pressure is listed as “reduced intraocular pressure”. Moreover, the thromboembolic events result in series [14] (acute use, coronary artery bypass graft patients) was “increase in the thromboembolic events”. Further, in series [13] (rat, in vivo), the gastric toxicity result is “not associated with gastric toxicity”.

These data come from patent US20050222251A1, “Dual inhibition of cyclooxygenase-2 and carbonic anhydrase” (AMOREPACIFIC CORPORATION, priority 2004, published 2005).
